Assay results published in patent publication US8518419B2, “Method of treating diabetes” (Garvan Institute of Medical Research, priority 2006, dated 2013).
“Also recorded” adds a separate entry of the source.

Tests used:
Min6 cells [1] = assay: Gene expression in Min6 cells by real-time PCR; assay type: cell-based, mouse
Experimental: Human pancreatic islets were purified from seven normoglycemic subjects using the modified Ricordi method (Ricordi et al., 1988) as previously described (Gunton et al., 2005). The subjects are described in (Gunton et al., 2005), and were matched for age and body-mass-index. Gene expression was measured by real-time-PCR and was performed in a two-step reaction using the Invitrogen RT-for-PCR kit. The second step was performed in a fluorescent temperature cycler (ABI-Prism 7700 Sequence Detection System, Applied Biosystems) with LightCycler-RNA Master SYBR-Green-I (Roche, Mannheim, Germany) and specific primers for each of the genes (sequences available on request). Every plate included a control gene (TATA-box binding protein/TBP) for every subject. Results were analysed by unpaired t-test.
In separate experiments, treated cells were lysed, and RNA isolated for real-time-PCR.
Following treatment with HIF-1α RNAi, the present inventors measured expression of genes in the maturity onset diabetes of the young (MODY) family, insulin-signalling and glucose-uptake and glycolytic genes by real-time PCR. […] In the insulin signaling pathway, HIF-1α knockdown decreased insulin-receptor substrate (IRS)-2 mRNA (FIG. 3E).
Min6 cells were treated with DFO at the doses indicated for 4 hours.

Min6 cells [2] = assay: Glucose-stimulated insulin secretion (GSIS) in Min6 cells; assay type: cell-based, mouse; details: DFO treatment
Min6 cells [3] = assay: Measurement of intracellular ATP concentrations; assay type: cell-based, mouse; details: DFO treatment
Experimental: ATP concentrations were measured in islets and in Min6 cells following exposure to low (1 mM) or high glucose (25 mM) for 30 minutes. At the 30 minute timepoint, cells were placed on ice, washed twice in ice-cold PBS and lysed and ATP was measured using a kit purchased from Roche, according to the manufacturer's instructions.

diabetic recipient mouse = assay: Mouse islet transplantation into streptozotocin-diabetic mice; assay type: in vivo; details: mouse islets cultured with 125 μM DFO 2 hours before transplantation, 1 donor:1 recipient, followed 28 days
Experimental: Islets were isolated from control mice and cultured with either control media or control media plus 125 μM DFO under normoxic conditions or in control media under hypoxic conditions (5% O2) for 2 hours before transplantation. All the islets from 1 donor mouse were transplanted into 1 recipient mouse which had been rendered diabetic (random glucose>22 mM) by streptozotocin treatment.
Transplant recipients were followed for 28 days, at which time nephrectomy was performed to confirm recurrence of diabetes.

human islets = assay: Insulin release of human islets at low and high glucose; assay type: cell-based; details: DFO 4 hours, low (5 mM) and high (11 mM) glucose
Experimental: The present inventors were interested to determine whether DFO was beneficial for function of human islets. Islets were isolated from people with normal glucose tolerance and treated with control media or media supplemented with DFO for 4 hours, and insulin release subsequently measured at low (5 mM) and high (11 mM) glucose concentrations.

diabetic SCID mice = assay: Minimal mass human islet transplantation into diabetic SCID mice; assay type: in vivo, mouse; details: human islets
Experimental: Human pancreatic islets were isolated from normal glucose tolerant donors as previously described (Gunton et al., 2005). Islets were transplanted under the left kidney capsule of SCID mice which had been rendered diabetic by injection of Alloxan at 95 mg/kg intravenously. Islets were transplanted in adequate mass (2000 IEQ per mouse), or minimal mass (600 IEQ per mouse). In each of the islet isolations, 2000 control-treated IEQ per mouse was adequate to cure diabetes. As expected, 600 control-treated IEQ per mouse was not adequate to control glucose at day 28 post-transplant in any mouse. […]

CC(=O)N(O)CCCCCNC(=O)CCC(=O)N(O)CCCCCNC(=O)CCC(=O)N(O)CCCCCN [DFO, desferrioxamine] was tested, and the “expression of ARNT” value (Min6 cells [1]; DFO 4 hours) was “did not alter expression of the house-keeping genes TATA-box binding protein (TBP) or transthyretin, or (B) increase expression of ARNT”, the “expression of housekeeping genes TATA-box binding protein (TBP) and transthyretin” value (Min6 cells [1]; DFO 4 hours) was “did not increase expression; also recorded: did not alter expression” and the “expression of mRNAs for Akt2, GLUT1, GLUT2, HNF4α, IRS2 and phosphoglucomutase (PGM)” value (Min6 cells [1]; DFO 4 hours) was “dose-dependently increased expression; also recorded: significantly increased expression”. For the same compound, the “expression of HNF1α, HNF1β and insulin receptor” value (Min6 cells [1]; DFO 4 hours (data not shown)) was “did not alter”, the “HIF-1α mRNA expression” value (Min6 cells [1]; highest dose of DFO, 4 hours) was “small but significant increase; also recorded: showed increased expression” and the “glucose stimulated insulin secretion (GSIS)” value (Min6 cells [2]) was “substantial increase in GSIS”. The ATP generation (Min6 cells [3]) was “increased ATP generation; also recorded: increased ATP concentrations”, the “average glucose after transplantation” value (diabetic recipient mouse) was 11.4 mM and the “insulin release (GSIS) of human islets” value (human islets) was “markedly increased; also recorded: markedly improved GSIS”. For the same compound, the “success rate following transplant of 600 IEQ” value (diabetic SCID mice; DFO 125 μM for 4 hours pre-transplantation, day 28) was 75% and the “cure of diabetes following transplantation of 600 IEQ” value (diabetic SCID mice; DFO 125 μmol/L prior to transplantation, n=8) was 75%.
